In PubChem BioAssay AID330 (DTP/NCI, 2004):
Where “and” joins values, the source holds several entries; their conditions need not be identical. Identical values can stand only once. Toxic doses and inconclusive results are not listed.

Test system: P388 leukemia ip, CD2F1 mice, survival T/C
Experiment: NCI In Vivo Anticancer Drug Screen. Data for tumor model P388 Leukemia (intraperitoneal) in CD2F1 (CDF1) mice
Details: endpoint: median survival time, higher = longer survival
Outline: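 Mice carrying the transplanted tumor received test compound or vehicle. Survival was recorded in each group, and the value is the treated-group measurement divided by that of the vehicle-treated control group.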

[1] = dose: 6.25 mg/kg/injection, schedule: Q01DX009 (ip), vehicle: saline with Tween-80
[2] = dose: 12.5 mg/kg/injection, schedule: Q01DX009 (ip), vehicle: saline with Tween-80
[3] = dose: 25.0 mg/kg/injection, schedule: Q01DX009 (ip), vehicle: saline with Tween-80
[4] = dose: 100.0 mg/kg/injection, schedule: Q01DX009 (ip), vehicle: saline with Tween-80
[5] = dose: 200.0 mg/kg/injection, schedule: Q01DX009 (ip), vehicle: saline with Tween-80
[6] = dose: 50.0 mg/kg/injection, schedule: Q01DX009 (ip), vehicle: saline with Tween-80
[7] = dose: 50.0 mg/kg/injection, schedule: Q01DX005 (ip), vehicle: Klucel (hydroxypropylcellulose) (HPC)
[8] = dose: 100.0 mg/kg/injection, schedule: Q01DX005 (ip), vehicle: Klucel (hydroxypropylcellulose) (HPC)
[9] = dose: 200.0 mg/kg/injection, schedule: Q01DX005 (ip), vehicle: Klucel (hydroxypropylcellulose) (HPC)
[10] = dose: 50.0 mg/kg/injection, schedule: Q01DX009 (ip), vehicle: Klucel (hydroxypropylcellulose) (HPC)
[11] = dose: 100.0 mg/kg/injection, schedule: Q01DX009 (ip), vehicle: Klucel (hydroxypropylcellulose) (HPC)
[12] = dose: 200.0 mg/kg/injection, schedule: Q01DX009 (ip), vehicle: Klucel (hydroxypropylcellulose) (HPC)
[13] = dose: 50.0 mg/kg/injection, schedule: Q01DX005 (ip), vehicle: saline
[14] = dose: 100.0 mg/kg/injection, schedule: Q01DX005 (ip), vehicle: saline
[15] = dose: 60.0 mg/kg/injection, schedule: Q01DX005 (ip), vehicle: saline with Tween-80
[16] = dose: 120.0 mg/kg/injection, schedule: Q01DX005 (ip), vehicle: saline with Tween-80

## CC12Oc3ccc(Cl)cc3C1(C)c1cc(Cl)ccc1O2 (stereo unspecified)
dose: 50.0 mg/kg/injection, schedule: Q01DX009 (ip), vehicle: acetone
  T/C: 104 % of control
dose: 100.0 mg/kg/injection, schedule: Q01DX009 (ip), vehicle: acetone
  T/C: 102 % of control
dose: 200.0 mg/kg/injection, schedule: Q01DX009 (ip), vehicle: acetone
  T/C: 102 % of control

## CC1Cc2ccc(OCCN(C)C)cc2C1=O (stereo unspecified)
dose: 50.0 mg/kg/injection, schedule: Q01DX005 (ip), vehicle: saline with Tween-80
  T/C: 98 % of control
dose: 100.0 mg/kg/injection, schedule: Q01DX005 (ip), vehicle: saline with Tween-80
  T/C: 99 % of control

## NC(=O)c1ccc([N+](=O)[O-])o1
dose: 12.5 mg/kg/injection, schedule: Q01DX009 (ip), vehicle: saline
  T/C: 99 % of control
dose: 25.0 mg/kg/injection, schedule: Q01DX009 (ip), vehicle: saline
  T/C: 100 % of control
dose: 50.0 mg/kg/injection, schedule: Q01DX009 (ip), vehicle: saline
  T/C: 95 % of control
dose: 100.0 mg/kg/injection, schedule: Q01DX009 (ip), vehicle: saline
  T/C: 108 % of control

## CCCCOP(=O)(O)OCCCC.[V]
[1]
  T/C: 99 % of control
[2]
  T/C: 96 % of control
[3]
  T/C: 97 % of control
[4]
  T/C: 104 % of control
[5]
  T/C: 103 % of control

## CCCCCCCCCCCCCCCCCCCC[N+]1(CC)CCOCC1
dose: 100.0 mg/kg/injection, schedule: Q04DX003 (ip), vehicle: saline with Tween-80
  T/C: 98 % of control
dose: 200.0 mg/kg/injection, schedule: Q04DX003 (ip), vehicle: saline with Tween-80
  T/C: 99 % of control
dose: 400.0 mg/kg/injection, schedule: Q04DX003 (ip), vehicle: saline with Tween-80
  T/C: 96 % of control

## CC(C)(C)C1CCC(=O)C2(CCCC2)C1 (stereo unspecified)
[6]
  T/C: 100 % of control
[4]
  T/C: 114 % of control
[5]
  T/C: 122 % of control

## O=C(O)CC(=O)NC1c2ccccc2Oc2ccccc21
[7]
  T/C: 94 % of control
[8]
  T/C: 97 % of control
[9]
  T/C: 99 % of control

## N#CN(Cc1ccccc1)C(c1ccccc1)(c1ccccc1)c1ccccc1.[Cl][Sn]([c]1ccccc1)([c]1ccccc1)[c]1ccccc1
dose: 3.12 mg/kg/injection, schedule: Q01DX005 (ip), vehicle: saline with Tween-80
  T/C: 91 % of control
dose: 6.25 mg/kg/injection, schedule: Q01DX005 (ip), vehicle: saline with Tween-80
  T/C: 98 % of control
dose: 12.5 mg/kg/injection, schedule: Q01DX005 (ip), vehicle: saline with Tween-80
  T/C: 91 % of control

## CC(=O)C1=CN(C)c2ccccc2S1
[7]
  T/C: 103 % of control
[8]
  T/C: 99 % of control
[9]
  T/C: 108 % of control

## C1=CC(=C(C2CCC(Nc3ccccc3)CC2)C2CCC(Nc3ccccc3)CC2)C=CC1=Nc1ccccc1 (stereo unspecified)
[6]
  T/C: 100 % of control
[4]
  T/C: 109 % of control
[5]
  T/C: 109 % of control

## O=S1(=O)OC2(CCCCC2)c2ccccc21
[10]
  T/C: 106 % of control
[11]
  T/C: 108 % of control
[12]
  T/C: 108 % of control
dose: 400.0 mg/kg/injection, schedule: Q01DX009 (ip), vehicle: Klucel (hydroxypropylcellulose) (HPC)
  T/C: 109 % of control

## CC(=O)NC1=C(O)C2C(c3ccc(Cl)cc3)C(C#N)C(=O)N2C1=O (stereo unspecified)
dose: 100.0 mg/kg/injection, schedule: Q01DX001 (ip), vehicle: saline
  T/C: 100 % of control
dose: 200.0 mg/kg/injection, schedule: Q01DX001 (ip), vehicle: saline
  T/C: 103 % of control
dose: 400.0 mg/kg/injection, schedule: Q01DX001 (ip), vehicle: saline
  T/C: 98 % of control

## COC1/C=C/OC2(C)Oc3c(C)c(O)c4c(O)c(c(/C=N/N(C)C(C)C(O)c5ccccc5)c(O)c4c3C2=O)NC(=O)C(C)=C/C=C/C(C)C(O)C(C)C(O)C(C)C(OC(C)=O)C1C (stereo unspecified)
[2]
  T/C: 120 % of control
[3]
  T/C: 116 % of control
[6]
  T/C: 109 % of control and 116 % of control
[4]
  T/C: 111 % of control

## COc1cccc2[nH]c(-c3ccccn3)nc12
[6]
  T/C: 95 % of control
[4]
  T/C: 104 % of control
[5]
  T/C: 95 % of control

## NCCCn1[nH]c(=O)c2cnccc2c1=O
[13]
  T/C: 103 % of control
[14]
  T/C: 94 % of control
dose: 200.0 mg/kg/injection, schedule: Q01DX005 (ip), vehicle: saline
  T/C: 101 % of control

## COc1cc(C[C@H]2CC(=O)O[C@@H]2CO)cc(OC)c1OC
dose: 50.0 mg/kg/injection, schedule: Q04DX002 (ip), vehicle: saline with Tween-80
  T/C: 101 % of control
dose: 100.0 mg/kg/injection, schedule: Q04DX002 (ip), vehicle: saline with Tween-80
  T/C: 99 % of control
dose: 200.0 mg/kg/injection, schedule: Q04DX002 (ip), vehicle: saline with Tween-80
  T/C: 96 % of control

## C=CC1(C)CCOC(=O)C1 (stereo unspecified)
[15]
  T/C: 94 % of control
[16]
  T/C: 97 % of control

## Nc1nnc(SCc2ccccc2)s1
dose: 3.13 mg/kg/injection, schedule: Q01DX009 (ip), vehicle: saline with Tween-80
  T/C: 102 % of control
[1]
  T/C: 104 % of control
[2]
  T/C: 109 % of control
[3]
  T/C: 103 % of control

## C/C(=C\COc1cc(O)c2c(c1)C(=O)c1cc(C)cc(O)c1C2=O)CCC1OC1(C)C (stereo unspecified)
dose: 2.5 mg/kg/injection, schedule: Q01DX005 (ip), vehicle: Klucel (hydroxypropylcellulose) (HPC)
  T/C: 98 % of control
dose: 5.0 mg/kg/injection, schedule: Q01DX005 (ip), vehicle: Klucel (hydroxypropylcellulose) (HPC)
  T/C: 93 % of control
dose: 10.0 mg/kg/injection, schedule: Q01DX005 (ip), vehicle: Klucel (hydroxypropylcellulose) (HPC)
  T/C: 90 % of control
dose: 20.0 mg/kg/injection, schedule: Q01DX005 (ip), vehicle: Klucel (hydroxypropylcellulose) (HPC)
  T/C: 88 % of control

## OCCSc1nc2ccc(N=Cc3ccccc3O)cc2s1
[10]
  T/C: 100 % of control
[11]
  T/C: 100 % of control
[12]
  T/C: 90 % of control

## O/N=C1/CCCCC/C1=N/O
[6]
  T/C: 98 % of control
[4]
  T/C: 100 % of control
[5]
  T/C: 100 % of control
dose: 400.0 mg/kg/injection, schedule: Q01DX009 (ip), vehicle: saline with Tween-80
  T/C: 107 % of control

## CC12CC3CC(C1)CC(Br)(C3)C2
[10]
  T/C: 103 % of control and 111 % of control
[11]
  T/C: 100 % of control
[12]
  T/C: 100 % of control

## NS(=O)(=O)/C=C(\Cl)c1ccccc1
[3]
  T/C: 102 % of control
[6]
  T/C: 94 % of control
[4]
  T/C: 94 % of control

## O=C(NP(=O)(N1CC1)N1CC1)c1cc(I)ccc1I
dose: 4.0 mg/kg/injection, schedule: Q01DX005 (ip), vehicle: suspension in saline
  T/C: 122 % of control
dose: 4.0 mg/kg/injection, schedule: Q01DX005 (iv), vehicle: suspension in saline
  T/C: 107 % of control
dose: 8.0 mg/kg/injection, schedule: Q01DX005 (iv), vehicle: suspension in saline
  T/C: 112 % of control
dose: 16.0 mg/kg/injection, schedule: Q01DX005 (ip), vehicle: suspension in saline
  T/C: 165 % of control
dose: 16.0 mg/kg/injection, schedule: Q01DX005 (iv), vehicle: suspension in saline
  T/C: 122 % of control
dose: 32.0 mg/kg/injection, schedule: Q01DX005 (ip), vehicle: suspension in saline
  T/C: 190 % of control
dose: 64.0 mg/kg/injection, schedule: Q01DX005 (ip), vehicle: suspension in saline
  T/C: 192 % of control

## Clc1cc2c(nn1)Nc1ccccc1S2
[2]
  T/C: 97 % of control
[3]
  T/C: 96 % of control
[6]
  T/C: 99 % of control and 87 % of control
[4]
  T/C: 98 % of control
[5]
  T/C: 87 % of control

## CN(CC(N)=O)C(=O)c1cnc2ccccc2c1
[15]
  T/C: 98 % of control
[16]
  T/C: 101 % of control
dose: 240.0 mg/kg/injection, schedule: Q01DX005 (ip), vehicle: saline with Tween-80
  T/C: 99 % of control

## CC(C)(C)N=C(CCNC1CCCCC1)Nc1ccccc1Cl
[6]
  T/C: 100 % of control
[4]
  T/C: 109 % of control
[5]
  T/C: 101 % of control

## C[Si](C)(C)/N=C(/O[Si](C)(C)C)C(F)(F)F
dose: 60.0 mg/kg/injection, schedule: Q01DX005 (ip), vehicle: saline
  T/C: 101 % of control
dose: 120.0 mg/kg/injection, schedule: Q01DX005 (ip), vehicle: saline
  T/C: 111 % of control
dose: 240.0 mg/kg/injection, schedule: Q01DX005 (ip), vehicle: saline
  T/C: 108 % of control

## CCOc1ccc2nc3cc(I)ccc3c(N)c2c1
dose: 7.5 mg/kg/injection, schedule: Q01DX005 (ip), vehicle: saline with Tween-80
  T/C: 102 % of control
dose: 15.0 mg/kg/injection, schedule: Q01DX005 (ip), vehicle: saline with Tween-80
  T/C: 100 % of control
dose: 30.0 mg/kg/injection, schedule: Q01DX005 (ip), vehicle: saline with Tween-80
  T/C: 112 % of control

## CCOP(=O)(OCC)C(N)Cc1c[nH]c2ccccc12 (stereo unspecified)
[13]
  T/C: 101 % of control
[14]
  T/C: 104 % of control
